Literature values in patent US20030130231A1, “2:1 Complex of beta- or gamma-cyclodextrin and alpha-tocopherol” (WACKER-CHEMIE GmbH, priority 2002, published 2003).
Like-named read-outs stand apart in the source and are kept apart here.

Columns and labels:
[1] = cited from earlier work
[2] = cited from earlier work; remark: listed apart in the source

Cc1c(C)c2c(c(C)c1O)CC[C@@](C)(CCC[C@H](C)CCC[C@H](C)CCCC(C)C)O2 [α-tocopherol]
can be kept in the original packaging ([1]; stored at 5° C.): up to 24 months
can be kept in the original packaging ([1]; stored at room temperature): ≤ 12 months
solubility in water [2]: insoluble in water
